According to patent publication US7423020B2, “Treatment of mood disorders by administration of SMR1” (Institut Pasteur, priority 2001, dated 2008):
Where a SMILES comes first, the peptide text is derived from it.

Columns and labels:
[1] = target: T1, purified rabbit kidney NEP (Oryctolagus cuniculus, UniProt P08049); assay: Direct interaction with purified rabbit kidney NEP in vitro; assay type: binding
T1 construct: using purified rabbit kidney NEP; from tissue; host or cells: rabbit kidney
T1 sequence (P08049 1-750): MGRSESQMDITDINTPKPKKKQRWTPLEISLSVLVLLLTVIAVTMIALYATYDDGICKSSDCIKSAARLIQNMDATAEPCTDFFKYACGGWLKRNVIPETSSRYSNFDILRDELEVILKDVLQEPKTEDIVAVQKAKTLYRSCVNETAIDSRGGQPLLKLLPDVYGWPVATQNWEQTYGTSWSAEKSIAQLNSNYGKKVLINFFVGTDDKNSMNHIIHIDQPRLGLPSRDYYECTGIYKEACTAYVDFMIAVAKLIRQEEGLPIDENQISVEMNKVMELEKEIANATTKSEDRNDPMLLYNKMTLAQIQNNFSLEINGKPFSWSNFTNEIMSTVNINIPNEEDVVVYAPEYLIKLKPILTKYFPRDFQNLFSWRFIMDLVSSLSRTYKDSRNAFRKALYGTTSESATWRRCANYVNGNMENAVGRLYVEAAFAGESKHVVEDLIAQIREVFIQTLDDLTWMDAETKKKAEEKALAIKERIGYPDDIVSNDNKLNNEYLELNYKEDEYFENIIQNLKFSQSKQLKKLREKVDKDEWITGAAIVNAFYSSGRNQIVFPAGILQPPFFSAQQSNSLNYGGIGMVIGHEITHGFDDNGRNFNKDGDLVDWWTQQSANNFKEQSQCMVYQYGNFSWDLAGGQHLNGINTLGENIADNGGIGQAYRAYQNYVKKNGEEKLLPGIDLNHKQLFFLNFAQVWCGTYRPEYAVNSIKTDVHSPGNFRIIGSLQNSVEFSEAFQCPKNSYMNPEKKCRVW

male Wistar/AF EOPS rats = assay: Behavioral despair test (forced swimming); assay type: in vivo, rat
Method: Forty male Wistar/AF EOPS rats (Iffa-Credo Breeding Centre, 69-St-Germain sur l'Arbresle, France), weighing 300 to 320 g, were used. On arrival, the rats were labelled and distributed randomly in pairs into type F polycarbonate cages (48×27×20 cm, U.A.R., 91-Epinay-Sur-Orge, France). The animals were stabled in an air-conditioned animal house, at a temperature of 22-24° C. The rats were given food (M25 croquettes, Ets Pietrement, 77-Provins, France) and drink ad libitum and were subjected to a 12-hour light-darkness cycle.
After one week of familiarization with the laboratory conditions, the rats were weighed and distributed randomly into 3 treatment groups (n=12). The rats of the different groups will all be handled in the same way and under the same conditions.
The behavioral despair test takes place over two sessions: • a 15-minute test session; • a 5-minute retest session, performed 24 hours later.
During the test session, the rat was subjected to forced swimming in a Plexiglas cylinder (20 cm in diameter and 50 cm in height, containing 25 cm of water at 25° C.) and its behavior was recorded over 15 minutes. At the end of the test, the rat was removed from the water, dried gently, treated and then returned to its dwelling cage.
During the retest, 24 hours later, the rat was again placed in the water and its behavior was recorded over 5 minutes.
The recorded variables are the period of immobility during the first 5 minutes of both the test and the retest.
The peptide FG-005 (SMR1-QHNPR) (SEQ ID NO: 1) was suspended at a rate of 500 μg per 5 ml of 0.01N acetic acid, and then diluted with PBS to be administered at doses of 50 and 100 μg/kg via the i.v. route into the dorsal caudal vein of the rat, immediately after the test and 300 and 5 minutes before the retest the following day.
A bilateral probability paired t test was used to compare the two periods of immobility of the test with those of the retest in each of the groups. The results are expressed as an average ±standard error of mean (SEM)(FIG. 4). The statistical and graphical processing was performed using Statview5 and DeltaGraph® Pro 3.5 software.

N=C(N)NCCC[C@H](NC(=O)[C@@H]1CCCN1C(=O)[C@H](CC(N)=O)NC(=O)[C@H](Cc1c[nH]cn1)NC(=O)[C@@H](N)CCC(N)=O)C(=O)O [SMR1-QHNPR, QHNPR] (H-QHNPR-OH; N-terminus and C-terminus assumed)
direct interaction with NEP [1]: direct interaction of rat kidney NEP and SMR1-Pentapeptide was demonstrated
overall effect in the behavioral despair test (male Wistar/AF EOPS rats; FG-005 50 and 100 μg/kg i.v., 8-OH-DPAT as reference substance): antidepressant effect
change of period of immobility, retest compared with test (male Wistar/AF EOPS rats; dose of 50 μg/kg): increase their period of immobility during the retest
change of period of immobility, retest compared with test (male Wistar/AF EOPS rats; doses of 50 and 100 μg/kg, i.v., immediately after the test and 300 and 5 minutes before the retest): do not increase their periods of immobility during the retest
